Test results published in patent publication US9422239B1, “Dual PPAR-δ PPAR-γ agonists” (Auburn University, priority 2013, dated 2016).
Each block holds one compound with its values, some of them ahead of it.

Key:
[1] = target: T1, PPARγ (AP2-PPRE) (Homo sapiens, UniProt P37231); assay: AP2-PPRE luciferase assay in HEK-293 cells; type: cell-based; conditions: luciferase assay, HEK-293 cells, 10 μM
T1 construct: expressed in transfected cells; host or cells: HEK-293
T1 sequence (P37231 1-505): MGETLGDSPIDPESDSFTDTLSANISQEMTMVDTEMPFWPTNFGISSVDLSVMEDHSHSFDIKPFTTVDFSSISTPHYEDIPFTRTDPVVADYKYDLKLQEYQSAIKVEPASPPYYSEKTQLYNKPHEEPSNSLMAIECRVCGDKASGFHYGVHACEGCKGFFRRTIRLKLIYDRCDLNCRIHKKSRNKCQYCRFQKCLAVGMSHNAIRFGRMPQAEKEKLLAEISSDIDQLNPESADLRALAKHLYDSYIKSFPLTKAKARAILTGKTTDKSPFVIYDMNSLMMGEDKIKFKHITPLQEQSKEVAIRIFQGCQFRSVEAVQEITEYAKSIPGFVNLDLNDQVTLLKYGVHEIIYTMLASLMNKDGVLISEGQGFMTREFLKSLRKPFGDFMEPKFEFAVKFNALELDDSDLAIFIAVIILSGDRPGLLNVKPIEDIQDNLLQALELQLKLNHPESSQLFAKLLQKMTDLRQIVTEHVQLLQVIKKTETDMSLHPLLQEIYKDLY
T1 sequence (P19793 1-462 partner): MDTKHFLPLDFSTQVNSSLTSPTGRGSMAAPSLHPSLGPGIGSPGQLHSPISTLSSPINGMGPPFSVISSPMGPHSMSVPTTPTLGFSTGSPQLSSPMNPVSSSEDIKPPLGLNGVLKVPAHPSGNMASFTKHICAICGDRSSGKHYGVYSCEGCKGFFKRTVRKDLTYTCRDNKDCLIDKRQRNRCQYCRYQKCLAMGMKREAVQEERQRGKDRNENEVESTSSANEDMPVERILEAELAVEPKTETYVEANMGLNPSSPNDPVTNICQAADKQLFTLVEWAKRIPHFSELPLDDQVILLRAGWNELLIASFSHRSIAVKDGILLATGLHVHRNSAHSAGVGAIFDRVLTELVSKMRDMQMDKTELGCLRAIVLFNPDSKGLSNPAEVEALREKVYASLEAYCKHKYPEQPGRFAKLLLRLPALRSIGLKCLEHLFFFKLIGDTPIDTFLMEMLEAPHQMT
From the text: (§1) To validate the specificity of the novel compounds towards activation of PPARγ/δ targets, we tested the compounds capacity to bind to select PPARγ/δ Peroxisome Proliferator Response Elements (PPRE). The PPRE are unique sites located in the promoter region where PPARs bind and transcriptionally activate the target genes. AP2-PPRE is the PPARγ target involved in adipocyte growth and differentiation. PDK4-PPRE is a PPARδ target involved in regulating energy metabolism in the cell. These PPREs were inserted into a PGL3 luciferase vectors containing CMV promoters (ADDGENE) using PCR. These vectors were co-transfected with RXR, PPARγ/PPARδ and p-galactosidase vectors into HEK-293 cells using Lipofectamine 2000 (Invitrogen). Relative light units (RLU) were measured using a Glomax Luminometer (Promega). Data were standardized to p-galactosidase activity using ONPG (Promega).

[2] = target: T2, PPARδ (PDK4-PPRE) (Homo sapiens, UniProt Q03181); assay: PDK4-PPRE luciferase assay in HEK-293 cells; type: cell-based
T2 construct: expressed in transfected cells; host or cells: HEK-293
T2 sequence (Q03181 1-441): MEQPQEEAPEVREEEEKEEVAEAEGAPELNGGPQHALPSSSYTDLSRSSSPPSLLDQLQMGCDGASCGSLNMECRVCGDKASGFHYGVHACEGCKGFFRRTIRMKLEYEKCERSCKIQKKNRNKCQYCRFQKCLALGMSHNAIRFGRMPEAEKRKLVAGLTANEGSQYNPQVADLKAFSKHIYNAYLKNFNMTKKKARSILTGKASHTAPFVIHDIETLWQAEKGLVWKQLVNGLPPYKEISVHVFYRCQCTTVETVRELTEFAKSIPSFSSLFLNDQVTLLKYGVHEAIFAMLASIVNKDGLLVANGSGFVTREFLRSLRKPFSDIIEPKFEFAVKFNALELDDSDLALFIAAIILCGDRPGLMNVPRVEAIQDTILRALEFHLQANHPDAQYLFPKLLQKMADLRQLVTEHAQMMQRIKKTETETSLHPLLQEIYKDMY
T2 sequence (P19793 1-462 partner): T1 sequence (P19793 1-462 partner)
From the text: as §1

[3] = system: 3T3-L1 adipocytes; assay: Lipid accumulation by oil red-o staining; type: cell-based; conditions: 6 days, oil red-o stain
Experimental: 3T3L1 adipocytes were cultured and treated with the novel compounds for a period of 6 days. Lipid accumulation was determined by oil red-o staining, and measured the absorbance spectrophotometrically at a wavelength of 510 nm and standardized to total protein concentrations. Data from lipid accumulation studies were compared to cells treated with rosiglitazone (a full PPARγ agonist).

[4] = system: C2C12 skeletal muscle cells; assay: Mitochondrial biogenesis markers by quantitative RT-PCR; type: cell-based; conditions: 4 days
Experimental: Therefore, to test the effects of the novel compounds on mitochondrial biogenesis, C2C12 skeletal muscle cells were cultured and treated with the novel compounds for 4 days. Changes associated with markers for mitochondrial biogenesis were determined by quantitative real time PCR.

[5] = Heart size (heart weight to body weight ratio); type: in vivo; conditions: 10 mg/kg oral daily for 1 month, wild type and db/db mice
Experimental: Diabetic db/db mice were fed a normal rodent chow diet. […] Mice were then weighed and their hearts were extracted and weighed. The heart weight of the mice compared to the body weight of the mice was then calculated based upon heart weight to body weight ratio.

[6] = Biodistribution by LC-Mass Spectral analysis; conditions: mice, 3 mg/kg (table); for concentration at 4 h: mouse, po, 3 mg/kg
[7] = system: db/db mice; assay: Hippocampal slice electrophysiology (LTP, PTP); type: in vivo
[8] = in vivo; cited from earlier work

- Binding affinity for the AP2-PPRE [1]: strong binding affinity
- Binding affinity for the PDK4-PPRE [2]: less binding affinity
SMILES: COc1ccc(CN(CCN2C(=O)c3ccccc3C2=O)S(=O)(=O)c2c(C)cc(C)cc2C)cc1 [Compound 3-91]
- Lipid accumulation [3]: comparable to rosiglitazone

- Binding affinity for the AP2-PPRE [1]: less binding affinity
- Binding affinity for the PDK4-PPRE [2]: less binding affinity
SMILES: CCOC(CNCc1ccc(C(F)(F)F)cc1)OCC [Compound 3-121]
- Lipid accumulation [3]: less lipid accumulation
- Lipid accumulation ([3]; listed as compound 3-121): insignificant induction of adiposity

SMILES: CC(C(=O)O)c1ccc(CNCc2ccc(Cl)c(Cl)c2)cc1 (stereo not shown) [Compound 4-23]
- Lipid accumulation [3]: less lipid accumulation

SMILES: Cc1cc(SCc2sc(-c3ccc(C(F)(F)F)c(F)c3)nc2C)ccc1OCC(=O)O [GW0742, reference compound]
- Gene expression of mitochondrial markers [4]: increases

- Concentration ([6]; Brain, oral, 4 hours): Not Detected
- concentration at 4 h ([6]; adipose, Concentration): 13 ng/mL
- concentration at 4 h ([6]; adipose, Tissue Concentration): 5 ng/mL
- concentration at 4 h ([6]; adipose, Tissue Distribution): 2.24 ng/mL
- concentration at 4 h ([6]; blood, Concentration): 247 ng/mL
- concentration at 4 h ([6]; heart, Concentration): 12.8 ng/mL
- concentration at 4 h ([6]; heart, Tissue Concentration): 2.12 ng/mL
- concentration at 4 h ([6]; heart, Tissue Distribution): 0.64 ng/mL
- concentration at 4 h ([6]; liver, Concentration): 250 ng/mL
- concentration at 4 h ([6]; liver, Tissue Concentration): 8.89 ng/mL
- concentration at 4 h ([6]; liver, Tissue Distribution): 4.95 ng/mL
SMILES: CN(CCOc1ccc(CC2SC(=O)NC2=O)cc1)c1ccccn1 (stereo not shown) [Rosiglitazone, rosiglitazone, reference compound]
- Heart size [5]: increase in heart size
- Amelioration of LTP reduction ([7]; ICV): > 50%
- Change in the slope of fEPSP after sixty minutes of induction of LTP ([7]; ICV): 148.33±2.5%
- fEPSP slope (LTP studies) ([7]; oral): 126±5.3%
- Half-life [8]: 4 h
